Results taken from PubChem BioAssay (NCI).
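Following 48 hours of exposure in 96-well plates, responses at five concentrations were used to interpolate endpoints linearly. At the TGI there is no net growth.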 Where a SMILES comes first, the peptide text is derived from it. The star is where a group is joined. Boc = CC(C)(C)OC(=O)*

What was measured:
Experiment in all cases: NCI anticancer screen, dose series, 48 h
[1] = system: HCT-15 colon
[2] = system: UACC-257 melanoma
[3] = system: COLO 205 colon
[4] = system: CAKI-1 renal
[5] = system: A498 renal
[6] = system: CCRF-CEM leukemia
[7] = system: ACHN renal
[8] = system: MALME-3M melanoma
[9] = system: KM12 colon
[10] = system: MCF7 breast

## O=C1Nc2ccccc2C12CCNC2Cc1ccccc1 (stereo not drawn)
[1]
  TGI: > 100 µM
[2]
  TGI: > 100 µM
[3]
  TGI: > 100 µM
[4]
  TGI: > 100 µM
[5]
  TGI: > 100 µM
[6]
  TGI: > 100 µM
[7]
  TGI: > 100 µM
[8]
  TGI: > 100 µM
[9]
  TGI: > 100 µM

## Cc1cnc2sn(-c3ccc(Oc4ccccc4)cc3)c(=O)c2c1
[10]
  TGI: 75.4 µM
[1]
  TGI: 23.9 µM
[2]
  TGI: 43.7 µM
[3]
  TGI: 47.1 µM
[6]
  TGI: > 100 µM
[7]
  TGI: 31.6 µM
[8]
  TGI: 9.07 µM
[9]
  TGI: 28 µM

## COC(=O)C(Cc1c[nH]c2ccccc12)NC(=O)C(Cc1c[nH]c2ccccc12)NC(=O)C(Cc1c[nH]c2ccccc12)NC(=O)C(Cc1c[nH]c2ccccc12)NC(=O)C(Cc1c[nH]c2ccccc12)NC(=O)C(Cc1c[nH]c2ccccc12)NC(=O)OC(C)(C)C (stereo not drawn) (Boc-WWWWWW-OMe; configuration not given here)
[10]
  TGI: > 100 µM
[1]
  TGI: > 100 µM
[2]
  TGI: > 100 µM
[4]
  TGI: > 100 µM
[6]
  TGI: > 100 µM
[7]
  TGI: > 100 µM
[8]
  TGI: > 100 µM

## O=C(NCCC1([N+](=O)[O-])CCN(C(=O)c2ccccc2)CC1)c1ccccc1
[1]
  TGI: > 100 µM
[2]
  TGI: 87.8 µM
[3]
  TGI: > 100 µM
[4]
  TGI: > 100 µM
[5]
  TGI: > 100 µM
[6]
  TGI: > 100 µM
[7]
  TGI: > 100 µM
[8]
  TGI: > 100 µM
[9]
  TGI: > 100 µM

## BrCCCCCOc1ccc(-c2c3ccccc3c(-c3ccc(OCCCCCBr)cc3)c3ccccc23)cc1
[10]
  TGI: > 100 µM
[1]
  TGI: > 100 µM
[2]
  TGI: > 100 µM
[3]
  TGI: > 100 µM
[4]
  TGI: > 100 µM
[6]
  TGI: > 100 µM
[7]
  TGI: > 100 µM
[9]
  TGI: > 100 µM

## CCOC(=O)c1cc(-c2cc(OC)c(OC)c([N+](=O)[O-])c2)c([N+](=O)[O-])n1C
[1]
  TGI: > 10 µM
[2]
  TGI: > 10 µM
[6]
  TGI: > 10 µM
[7]
  TGI: > 10 µM
[8]
  TGI: > 10 µM
[9]
  TGI: > 10 µM

## O=S(=O)(c1ccccc1)n1c2ccc(Br)cc2c2nc3ccccc3nc21
[1]
  TGI: > 100 µM
[2]
  TGI: > 100 µM
[3]
  TGI: > 100 µM
[4]
  TGI: > 100 µM
[5]
  TGI: > 100 µM
[6]
  TGI: > 100 µM
[7]
  TGI: > 100 µM
[8]
  TGI: > 100 µM
[9]
  TGI: > 100 µM

## O=C(O)c1cc2ccccc2c(N=Nc2ccc(S(=O)(=O)Nc3nccs3)cc2)c1O
[10]
  TGI: > 100 µM
[1]
  TGI: > 100 µM
[2]
  TGI: > 100 µM
[3]
  TGI: > 100 µM
[4]
  TGI: > 100 µM
[6]
  TGI: > 100 µM
[7]
  TGI: > 100 µM
[8]
  TGI: > 100 µM
[9]
  TGI: > 100 µM

## CCCCC(=O)NS(=NC(=O)c1ccccc1)C(Cl)(Cl)Cl (stereo not drawn)
[10]
  TGI: > 100 µM
[1]
  TGI: > 100 µM
[2]
  TGI: > 100 µM
[3]
  TGI: > 100 µM
[6]
  TGI: > 100 µM
[7]
  TGI: > 100 µM
[8]
  TGI: > 100 µM
[9]
  TGI: > 100 µM

## NC(CCCC(N)P(=O)(O)c1ccccc1)P(=O)(O)c1ccccc1 (stereo not drawn)
[1]
  TGI: > 261 µM
[2]
  TGI: > 261 µM
[3]
  TGI: > 261 µM
[5]
  TGI: > 261 µM
[6]
  TGI: > 261 µM
[7]
  TGI: > 261 µM
[8]
  TGI: > 261 µM
[9]
  TGI: > 261 µM

## COc1cc(C2c3cc4c(cc3[C@@H](Nc3ccccc3)C3COC[C@H]23)OCO4)cc(OC)c1O (stereo partly drawn)
[10]
  TGI: > 100 µM
[1]
  TGI: 12.9 µM
[2]
  TGI: 50.4 µM
[3]
  TGI: 70.7 µM
[6]
  TGI: 2.15 µM
[7]
  TGI: 3.82 µM
[9]
  TGI: 32.5 µM

## COc1ccc(-c2cc(=O)c3cc4c(cc3[nH]2)OCO4)cc1OC
[1]
  TGI: > 100 µM
[3]
  TGI: > 100 µM
[4]
  TGI: > 100 µM
[6]
  TGI: > 100 µM
[7]
  TGI: > 100 µM
[8]
  TGI: > 100 µM
[9]
  TGI: > 100 µM

## CCOC(=O)C1(C/C=C(/C)Cl)CCCC1=O (stereo not drawn)
[1]
  TGI: > 100 µM
[2]
  TGI: > 100 µM
[3]
  TGI: > 100 µM
[4]
  TGI: > 100 µM
[5]
  TGI: > 100 µM
[6]
  TGI: > 100 µM
[7]
  TGI: > 100 µM
[8]
  TGI: > 100 µM
[9]
  TGI: > 100 µM

## Cc1c(Cl)nc(Nc2nc3ccccc3[nH]2)nc1Cl
[1]
  TGI: > 100 µM
[2]
  TGI: > 100 µM
[3]
  TGI: > 100 µM
[4]
  TGI: 71.9 µM
[5]
  TGI: > 100 µM
[7]
  TGI: > 100 µM
[8]
  TGI: > 100 µM
[9]
  TGI: 41.6 µM

## N#CC1=C(N)n2c(s/c(=C\c3ccc(Cl)cc3)c2=O)=C(c2nc3ccccc3[nH]2)C1c1ccc(Cl)cc1 (stereo not drawn)
[1]
  TGI: 4.2 µM
[2]
  TGI: 7.84 µM
[3]
  TGI: 6.38 µM
[4]
  TGI: 10.7 µM
[5]
  TGI: 4.29 µM
[6]
  TGI: 4.23 µM
[7]
  TGI: 5.26 µM
[8]
  TGI: 4.74 µM
[9]
  TGI: 3.06 µM

## Cc1cccc2c(=O)c([Se]c3coc4c(C)cccc4c3=O)coc12
[1]
  TGI: 39.2 µM
[2]
  TGI: 38.5 µM
[4]
  TGI: 48.4 µM
[5]
  TGI: 41 µM
[6]
  TGI: > 100 µM
[7]
  TGI: 38.3 µM
[8]
  TGI: 33.6 µM
[9]
  TGI: 26.8 µM

## CN(C)c1ccc(C(=C(c2ccc(N(C)C)cc2)c2ccc(N(C)C)cc2)c2ccc(N(C)C)cc2)cc1
[1]
  TGI: 32.7 µM
[2]
  TGI: 34.8 µM
[3]
  TGI: > 100 µM
[4]
  TGI: 28 µM
[5]
  TGI: 36.8 µM
[6]
  TGI: 50.4 µM
[7]
  TGI: 24.6 µM
[8]
  TGI: 32.6 µM
[9]
  TGI: 47.8 µM
